The subject of this assay is Aβ42 secretion. Nature of the assay: Cellular γ-secretase assay (inhibition of Aβ42 secretion). It is filed as cell-based. As to conditions: human neuroglioma H4 cells overexpressing human APP, 22 hours incubation. On the procedure: Cellular γ-Secretase Assay
The compounds were investigated in accordance with the test given hereinafter.
Human neuroglioma H4 cells overexpressing human APP were plated at 30,000 cells/well/200 μL in 96-well plates in IMDM media containing 10% FCS, […] Hygromycin B and incubated for 2 hours at 37° C., 5% CO2 prior to adding test compounds.
Compounds for testing were dissolved in 100% Me2SO yielding in a 10 mM stock solution. Typically 12 μL of these solutions were further diluted in 1000 μL of IMDM media (w/o FCS). Subsequent 1:1 dilutions gave a ten point dose response curve. 100 μL of each dilution was added to the cells in 96-well plates. Appropriate controls using vehicle only and reference compound were applied to this assay. The final concentration of Me2SO was 0.4%.
After incubation for 22 hours at 37° C., 5% CO2, 50 μL supernatant was transferred into round-bottom 96-well polypropylene plates for detection of Aβ42. 50 μL assay buffer (50 mM Tris/Cl, pH 7.4, 60 mM NaCl, 0.5% BSA, 1% TWEEN 20) was added to the wells followed by the addition of 100 μL of detection antibody (ruthenylated BAP15 0.0625 μg/mL in assay buffer). 50 μL of a premix of capture antibody (biotinylated 6E10 antibody, 1 μg/mL) and Streptavidin-coated magnetic beads (Dynal M-280, 0.125 mg/mL) were preincubated for 1 hour at room temperature before adding the assay plates. Assay plates were incubated on a shaker for 3 hours at room temperature and finally read in the Bioveris M8 Analyser according to the manufacturer's instructions (Bioveris).
IC50 values for inhibition of Aβ42 secretion were calculated by nonlinear regression fit analysis using XLfit 4.0 software (IDBS).

The structures appear in SMILES notation.

Regarding `O=C(Nc1cc(F)cc(F)c1)c1cc2cc(C3CCN(CC(F)(F)F)C3)ccc2[nH]1` (stereo not drawn) [Example 10, 5-[1-(2,2,2-Trifluoro-ethyl)-pyrrolidin-3-yl]-1H-indole-2-carboxylic acid (3,5-difluoro-phenyl)-amide], the EC50 (commonly the concentration at which the effect is half-maximal) (Homo sapiens, 22 h) came out at 3830 nM.

Take `CC(c1ccc2[nH]c(C(=O)Nc3cc(F)cc(F)c3)cc2c1)C1CCN(C(C)C)C1` (stereo not drawn) [Example 93, N-(3,5-Difluorophenyl)-5-(1-(1-isopropylpyrrolidin-3-yl)ethyl)-1H-indole-2-carboxamide]: the concentration giving a half-maximal response (EC50) (Homo sapiens, 22 h) was found to be 1190 nM.

In turn, `O=C(Nc1cccc(F)c1)c1cc2cc(C3CC(=O)N(Cc4ccccc4)C3=O)ccc2[nH]1` (stereo not drawn) [Example 17, 5-(1-Benzyl-2,5-dioxopyrrolidin-3-yl)-N-(3-fluorophenyl)-1H-indole-2-carboxamide] displayed a half-maximal effective concentration (EC50) (Homo sapiens, 22 h) of 8460 nM.

`O=C(Nc1ccc(F)cc1)c1cc2cc(C3CCN(CCc4ccccc4)CC3)ccc2[nH]1` [Example 45, 5-(1-Phenethyl-piperidin-4-yl)-1H-indole-2-carboxylic acid (4-fluoro-phenyl)-amide] had a half-maximal effective concentration (EC50) (Homo sapiens, 22 h) of 12900 nM.

As for `CN1CCC(c2ccc3[nH]c(C(=O)Nc4cc(F)cc(F)c4)cc3c2)C1` (stereo not drawn) [Example 2, 5-(1-Methyl-pyrrolidin-3-yl)-1H-indole-2-carboxylic acid (3,5-difluoro-phenyl)-amide], the midpoint of the response, the EC50, lay at 178 nM.

Consider `COCC(=O)N1CCC(c2ccc3[nH]c(C(=O)Nc4cncc(F)c4)cc3c2)C1` (stereo not drawn) [Example 82, N-(5-Fluoropyridin-3-yl)-5-(1-(2-methoxyacetyl)pyrrolidin-3-yl)-1H-indole-2-carboxamide], for which the midpoint of the response (Homo sapiens, 22 h), the EC50, lay at 1930 nM.

With `O=C(Nc1cccc(F)c1)c1cc2cc(C3CCNC3)ccc2[nH]1` (stereo not drawn) [Example 8, N-(3-Fluorophenyl)-5-(pyrrolidin-3-yl)-1H-indole-2-carboxamide], for the setting “Homo sapiens, 22 h”, the midpoint of the response, the EC50, lay at 627 nM.

Regarding `O=C(Nc1cc(F)cc(F)c1)c1cc2cc([C@@H]3CCN(CC(F)(F)F)C3)ccc2[nH]1` [Example 104, 5-[(S)-1-(2,2,2-Trifluoro-ethyl)-pyrrolidin-3-yl]-1H-indole-2-carboxylic acid (3,5-difluoro-phenyl)-amide], the 50% effective concentration (EC50) (Homo sapiens, 22 h) stood at 528 nM.

Regarding `CC(C)C(=O)N1CCCC(c2ccc3[nH]c(C(=O)Nc4cc(F)cc(F)c4)cc3c2)C1` (stereo not drawn) [Example 51, 5-(1-Isobutyryl-piperidin-3-yl)-1H-indole-2-carboxylic acid (3,5-difluoro-phenyl)-amide], under “Homo sapiens, 22 h”, a half-maximal effect (EC50) was put at 263 nM.

Under “Homo sapiens, 22 h”, `CCN1CCCC(c2ccc3[nH]c(C(=O)Nc4cccc(F)c4)cc3c2)C1` (stereo not drawn) [Example 70, 5-(1-Ethylpiperidin-3-yl)-N-(3-fluorophenyl)-1H-indole-2-carboxamide] returned a concentration for a half-maximal effect (EC50) of 810 nM. This EC50 is about 3.1-fold higher than that of the molecule before.

With `Cc1cccc(NC(=O)c2cc3cc(C4CCCN(C(C)C)C4)ccc3[nH]2)c1` (stereo not drawn) [Example 33, 5-(1-Isopropyl-piperidin-3-yl)-1H-indole-2-carboxylic acid m-tolylamide], the EC50 (Homo sapiens, 22 h) stood at 1580 nM. This EC50 is about 2-fold higher than that of the molecule before.

Take `CC(c1ccc2[nH]c(C(=O)Nc3cc(F)cc(F)c3)cc2c1)N1CCCCC1=O` (stereo not drawn) [Example 89, 5-[1-(2-Oxo-piperidin-1-yl)-ethyl]-1H-indole-2-carboxylic acid (3,5-difluoro-phenyl)-amide]: the EC50 (Homo sapiens, 22 h) was 4400 nM.

In the case of `CN1CC[C@@H](c2ccc3[nH]c(C(=O)Nc4cc(F)cc(F)c4)cc3c2)C1` [Example 102, 5-((S)-1-Methyl-pyrrolidin-3-yl)-1H-indole-2-carboxylic acid (3,5-difluoro-phenyl)-amide], the half-maximal effective concentration (EC50) was 300 nM.

For the molecule `COCC(=O)N1CCCC(c2ccc3[nH]c(C(=O)Nc4cc(F)cc(F)c4)cc3c2)C1` (stereo not drawn) [Example 57, 5-[1-(2-Methoxy-acetyl)-piperidin-3-yl]-1H-indole-2-carboxylic acid (3,5-difluoro-phenyl)-amide], where the note is “Homo sapiens, 22 h”, the concentration giving a half-maximal response (EC50) came out at 668 nM. In other words, the sub-micromolar range.

As to `CC(C)C1(c2ccc3[nH]c(C(=O)Nc4ccc(F)c(F)c4)cc3c2)CNC(=O)C1` (stereo not drawn) [Example 18, 5-(3-Isopropyl-5-oxo-pyrrolidin-3-yl)-1H-indole-2-carboxylic acid (3,4-difluoro-phenyl)-amide], the EC50 (Homo sapiens, 22 h) came to 2320 nM.

As to `O=C(Nc1cccc(F)c1)c1cc2cc(C3CCCN(C4CC4)C3)ccc2[nH]1` (stereo not drawn) [Example 72, 5-(1-Cyclopropylpiperidin-3-yl)-N-(3-fluorophenyl)-1H-indole-2-carboxamide], the EC50 (Homo sapiens, 22 h) came to 1110 nM.

Regarding `CC(c1ccc2[nH]c(C(=O)Nc3cc(F)cc(F)c3)cc2c1)N1CCCC1=O` (stereo not drawn) [Example 88, 5-[1-(2-Oxo-pyrrolidin-1-yl)-ethyl]-1H-indole-2-carboxylic acid (3,5-difluoro-phenyl)-amide], the half-maximal effective concentration (EC50) (Homo sapiens, 22 h) came out at 321 nM.

Molecule `CC(CCN1CCCCC1)c1ccc2[nH]c(C(=O)Nc3cc(F)cc(F)c3)cc2c1` (stereo not drawn) [Example 98, N-(3,5-Difluorophenyl)-5-(4-(piperidin-1-yl)butan-2-yl)-1H-indole-2-carboxamide] gave an EC50 (Homo sapiens, 22 h) of 1040 nM. Against the preceding molecule, the EC50 is about 3.2-fold higher.

On to `C[C@@H](c1ccc2[nH]c(C(=O)Nc3cc(F)cc(F)c3)cc2c1)[C@H]1CCN(CC(F)(F)F)C1` [Example 121, N-(3,5-Difluorophenyl)-5-((R)-1-((R)-1-(2,2,2-trifluoroethyl)pyrrolidin-3-yl)ethyl)-1H-indole-2-carboxamide], for which it took 7480 nM to reach a half-maximal effect (Homo sapiens, 22 h) (EC50). This EC50 is about 7.2-fold higher than that of the molecule before.

`CC(CN1CCCC1)c1ccc2[nH]c(C(=O)Nc3cccc(F)c3)cc2c1` (stereo not drawn) [Example 99, N-(3-Fluorophenyl)-5-(1-(pyrrolidin-1-yl)propan-2-yl)-1H-indole-2-carboxamide]: a half-maximal effect (Homo sapiens, 22 h) (EC50) was put at 1240 nM. This EC50 is about 6-fold lower than that of the molecule before.

`CC(C)N1CCC(c2ccc3[nH]c(C(=O)Nc4ccc(F)cc4)cc3c2)CC1` [Example 48, 5-(1-Isopropyl-piperidin-4-yl)-1H-indole-2-carboxylic acid (4-fluoro-phenyl)-amide] came in with a concentration for a half-maximal effect (EC50) (Homo sapiens, 22 h) of 2510 nM.

In turn, `CC(C)N1CCC(c2ccc3[nH]c(C(=O)Nc4cccc(F)c4)cc3c2)C1` (stereo not drawn) [Example 14, N-(3-Fluorophenyl)-5-(1-isopropylpyrrolidin-3-yl)-1H-indole-2-carboxamide] gave an EC50 (Homo sapiens, 22 h) of 519 nM.

For the molecule `C=C(CCN1CCCCC1)c1ccc2[nH]c(C(=O)Nc3cc(F)cc(F)c3)cc2c1` [Example 97, N-(3,5-Difluorophenyl)-5-(4-(piperidin-1-yl)but-1-en-2-yl)-1H-indole-2-carboxamide], the EC50 (Homo sapiens, 22 h) is 1260 nM.

`CN1CCC(c2ccc3[nH]c(C(=O)Nc4cc(F)cc(C#N)c4)cc3c2)C1` (stereo not drawn) [Example 6, N-(3-Cyano-5-fluorophenyl)-5-(1-methylpyrrolidin-3-yl)-1H-indole-2-carboxamide] gave an EC50 (Homo sapiens, 22 h) of 1420 nM.

Molecule `O=C(Nc1ccc(F)c(F)c1)c1cc2cc(C3=COCCC3)ccc2[nH]1` [Example 85, 5-(5,6-Dihydro-4H-pyran-3-yl)-1H-indole-2-carboxylic acid (3,4-difluoro-phenyl)-amide] gave an EC50 (Homo sapiens, 22 h) of 445 nM.

Turning to `CN1CCC(c2ccc3[nH]c(C(=O)Nc4cccc(F)c4)cc3c2)C1` (stereo not drawn) [Example 4, N-(3-Fluorophenyl)-5-(1-methylpyrrolidin-3-yl)-1H-indole-2-carboxamide], for the setting “Homo sapiens, 22 h”, the response was half-maximal at 402 nM (EC50).

On to `CC(C)N1CCCC(c2ccc3[nH]c(C(=O)Nc4ccc(F)cc4)cc3c2)C1` (stereo not drawn) [Example 47, 5-(1-Isopropyl-piperidin-3-yl)-1H-indole-2-carboxylic acid (4-fluoro-phenyl)-amide], for which the EC50 (Homo sapiens, 22 h) amounted to 1150 nM.

The values are drawn from patent US20150274661A1, “INDOL-AMIDE COMPOUNDS AS BETA-AMYLOID INHBITORS” (Hoffmann-La Roche Inc., priority 2012, published 2015).
